Target: T1, human GPR119 (hGPR119) (Homo sapiens, UniProt Q8TDV5)
T1 construct: expressed in transfected cells
T1 sequence (Q8TDV5 1-335): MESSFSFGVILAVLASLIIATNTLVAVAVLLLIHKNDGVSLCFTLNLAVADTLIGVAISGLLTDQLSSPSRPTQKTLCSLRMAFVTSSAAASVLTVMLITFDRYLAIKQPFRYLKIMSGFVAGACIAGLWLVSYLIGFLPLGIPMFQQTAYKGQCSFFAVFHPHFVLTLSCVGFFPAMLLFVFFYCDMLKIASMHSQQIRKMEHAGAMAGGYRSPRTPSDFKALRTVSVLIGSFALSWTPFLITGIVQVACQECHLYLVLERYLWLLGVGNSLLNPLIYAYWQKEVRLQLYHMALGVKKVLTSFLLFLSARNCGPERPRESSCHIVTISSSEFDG
Test: cAMP accumulation assay (Cisbio cAMP Gs dynamic HTRF kit) in CHO-K1 cells stably expressing human GPR119
Assay type: cell-based
Settings: 4-parameter fit; for Emax: 1 h, % activity normalized to Max and Min controls; for EC50: 60 minutes at 37° C.
Method: CHO-K1 cells stably expressing human GPR119 (hGPR119) were prepared by transfection of a GPR119-carrying plasmid using Lipofectamine 2000 (following manufacturer instructions). A stable cell line was established using the limiting dilution method with geneticine selection. Assay-ready frozen (ARF) cells were prepared and used throughout the study.
The assay was performed in a 384-well plate format using the cAMP Gs dynamic assay kit from Cisbio. ARF cells expressing hGPR119 were thawed, washed and then resuspended in cAMP stimulation buffer at a cell density of 1.1×10^6 cells/mL. Cells were plated at a density of ˜10,000 cells/well (9 μL/well). Dose response curves for the tested compounds were prepared in a cAMP stimulation buffer, containing 0.1% Tween 80 at 4 fold the final concentration. The compounds were then transferred to the cell plates using BRAVO (3 μL/well) and the plates were incubated for 60 minutes at 37° C./5% CO2. Detection buffer (10 μL, prepared as described in the cAMP Gs dynamic kit) were added to each well, and the plates were incubated at ambient temperature for 1 hr.
RT-FRET was measured using a ClarioSTAR plate reader, calculating the ratio between emissions at 665 nm and 620 nm (HTRF ratio). The HTRF ratio for positive (Max) and negative (Min) controls were used to normalize HTRF data and generate values for % activity. EC50 and Max activity values were determined using a standard 4-parameter fit.

| Compound | Emax [%] | EC50 [nM] |
| --- | --- | --- |
| O=C(Cc1ccc(OCCCC2CCN(c3ncc(Cl)cn3)CC2)cc1F)N1CC2(CCC2NC[C@H](O)[C@@H](O)[C@H](O)[C@H](O)CO)C1 (stereo in doubt) [Example 79, 2-(4-(3-(1-(5-chloropyrimidin-2-yl)piperidin-4-yl)propoxy)-2-fluorophenyl)-1-(5-(((2S,3R,4R,5R)-2,3,4,5,6-pentahydroxyhexyl)amino)-2-azaspiro[3.3]heptan-2-yl)ethan-1-one] | ≥ 130 | ≤ 100 |
| O=C(CCCCS(=O)(=O)O)N1CCC2(CCN(C(=O)Cc3ccc(OCCCC4CCN(c5ncc(Cl)cn5)CC4)cc3F)C2)C1 (stereo not shown) [Example 1, 5-(7-(2-(4-(3-(1-(5-chloropyrimidin-2-yl)piperidin-4-yl)propoxy)-2-fluorophenyl)acetyl)-2,7-diazaspiro[4.4]nonan-2-yl)-5-oxopentane-1-sulfonic acid] | 100 to 130 | ≤ 100 |
| O=C(Cc1ccc(OCCCC2CCN(c3ncc(Cl)cn3)CC2)cc1F)N1CC2(CCN2C(=O)CCCCS(=O)(=O)O)C1 [Example 5, 5-(6-(2-(4-(3-(1-(5-chloropyrimidin-2-yl)piperidin-4-yl)propoxy)-2-fluorophenyl)acetyl)-1,6-diazaspiro[3.3]heptan-1-yl)-5-oxopentane-1-sulfonic acid] | 100 to 130 | ≤ 100 |
| O=C(Cc1ccc(OCCCC2CCN(c3ncc(Cl)cn3)CC2)cc1F)N1C[C@H]2CN(C(=O)CCCCS(=O)(=O)O)[C@H]2C1 [Example 7, 5-((1S,5R)-3-(2-(4-(3-(1-(5-chloropyrimidin-2-yl)piperidin-4-yl)propoxy)-2-fluorophenyl)acetyl)-3,6-diazabicyclo[3.2.0]heptan-6-yl)-5-oxopentane-1-sulfonic acid] | 100 to 130 | 100 to 1000 |
| O=C(CCCCS(=O)(=O)O)N1CC2(CCN2C(=O)Cc2ccc(OCCCC3CCN(c4ncc(Cl)cn4)CC3)cc2F)C1 [Example 9, 5-(1-(2-(4-(3-(1-(5-chloropyrimidin-2-yl)piperidin-4-yl)propoxy)-2-fluorophenyl)acetyl)-1,6-diazaspiro[3.3]heptan-6-yl)-5-oxopentane-1-sulfonic acid] | 100 to 130 | > 10000 |
| O=C(CCCCS(=O)(=O)O)N1C[C@H]2C[C@@H]1CN2C(=O)Cc1ccc(OCCCC2CCN(c3ncc(Cl)cn3)CC2)cc1F [Example 11, 5-((1R,4R)-5-(2-(4-(3-(1-(5-chloropyrimidin-2-yl)piperidin-4-yl)propoxy)-2-fluorophenyl)acetyl)-2,5-diazabicyclo[2.2.1]heptan-2-yl)-5-oxopentane-1-sulfonic acid] | 100 to 130 | ≤ 100 |
| O=C(Cc1ccc(OCCCC2CCN(c3ncc(Cl)cn3)CC2)cc1F)N1CC2CC(C1)N2C(=O)CCCCS(=O)(=O)O [Example 12, 5-(3-(2-(4-(3-(1-(5-chloropyrimidin-2-yl)piperidin-4-yl)propoxy)-2-fluorophenyl)acetyl)-3,6-diazabicyclo[3.1.1]heptan-6-yl)-5-oxopentane-1-sulfonic acid] | 100 to 130 | ≤ 100 |
| O=C(CCCCS(=O)(=O)O)N1CCCN(C(=O)Cc2ccc(OCCCC3CCN(c4ncc(Cl)cn4)CC3)cc2F)CC1 [Example 13, 5-(4-(2-(4-(3-(1-(5-chloropyrimidin-2-yl)piperidin-4-yl)propoxy)-2-fluorophenyl)acetyl)-1,4-diazepan-1-yl)-5-oxopentane-1-sulfonic acid] | 100 to 130 | 100 to 1000 |
| O=C(CCCCS(=O)(=O)O)N1CC2CCC1CN2C(=O)Cc1ccc(OCCCC2CCN(c3ncc(Cl)cn3)CC2)cc1F (stereo not shown) [Example 14, 5-(5-(2-(4-(3-(1-(5-chloropyrimidin-2-yl)piperidin-4-yl)propoxy)-2-fluorophenyl)acetyl)-2,5-diazabicyclo[2.2.2]octan-2-yl)-5-oxopentane-1-sulfonic acid] | 100 to 130 | ≤ 100 |
| O=C(CCCCS(=O)(=O)O)N1CC2CC(C1)N2C(=O)Cc1ccc(OCCCC2CCN(c3ncc(Cl)cn3)CC2)cc1F [Example 16, 5-(6-(2-(4-(3-(1-(5-chloropyrimidin-2-yl)piperidin-4-yl)propoxy)-2-fluorophenyl)acetyl)-3,6-diazabicyclo[3.1.1]heptan-3-yl)-5-oxopentane-1-sulfonic acid] | 100 to 130 | ≤ 100 |

Results, then the compound that gave them:

| Emax [%] | EC50 [nM] | Compound |
| --- | --- | --- |
| ≥ 130 | ≤ 100 | O=C(Cc1ccc(OCCCC2CCN(c3ncc(Cl)cn3)CC2)cc1F)N1CCC2(CCCN2C[C@H](O)[C@@H](O)[C@H](O)[C@H](O)CO)C1 (stereo in doubt) [Example 75, 2-(4-(3-(1-(5-chloropyrimidin-2-yl)piperidin-4-yl)propoxy)-2-fluorophenyl)-1-(1-((2S,3R,4R,5R)-2,3,4,5,6-pentahydroxyhexyl)-1,7-diazaspiro[4.4]nonan-7-yl)ethan-1-one] |
| ≥ 130 | ≤ 100 | O=C(Cc1ccc(OCCCC2CCN(c3ncc(Cl)cn3)CC2)cc1F)N1CCC2(CCCC2NC[C@H](O)[C@@H](O)[C@H](O)[C@H](O)CO)C1 (stereo in doubt) [Example 77, 2-(4-(3-(1-(5-chloropyrimidin-2-yl)piperidin-4-yl)propoxy)-2-fluorophenyl)-1-(6-(((2S,3R,4R,5R)-2,3,4,5,6-pentahydroxyhexyl)amino)-2-azaspiro[4.4]nonan-2-yl)ethan-1-one] |
| ≥ 130 | ≤ 100 | O=C(Cc1ccc(OCCCC2CCN(c3ncc(Cl)cn3)CC2)cc1F)N1CC[C@]2(CCC2NCC(O)C(O)C(O)CO)C1 (stereo in doubt) [Example 84, 2-(4-(3-(1-(5-chloropyrimidin-2-yl)piperidin-4-yl)propoxy)-2-fluorophenyl)-1-(1-(((2S,3S,4R)-2,3,4,5-tetrahydroxypentyl)amino)-6-azaspiro[3.4]octan-6-yl)ethan-1-one] |
| ≥ 130 | ≤ 100 | O=C(Cc1ccc(OCCCC2CCN(c3ncc(Cl)cn3)CC2)cc1F)N1CCC2(C1)CN(C(=O)CCCCS(=O)(=O)O)C2 [Example 2, 5-(6-(2-(4-(3-(1-(5-chloropyrimidin-2-yl)piperidin-4-yl)propoxy)-2-fluorophenyl)acetyl)-2,6-diazaspiro[3.4]octan-2-yl)-5-oxopentane-1-sulfonic acid] |
| 100 to 130 | ≤ 100 | O=C(CCCCS(=O)(=O)O)N1CC2(C1)CN(C(=O)Cc1ccc(OCCCC3CCN(c4ncc(Cl)cn4)CC3)cc1F)C2 [Example 3, 5-(6-(2-(4-(3-(1-(5-chloropyrimidin-2-yl)piperidin-4-yl)propoxy)-2-fluorophenyl)acetyl)-2,6-diazaspiro[3.3]heptan-2-yl)-5-oxopentane-1-sulfonic acid] |
| 100 to 130 | ≤ 100 | O=C(Cc1ccc(OCCCC2CCN(c3ncc(Cl)cn3)CC2)cc1F)N1CCC2(CCN2C(=O)CCCCS(=O)(=O)O)C1 (stereo not shown) [Example 4, 5-(6-(2-(4-(3-(1-(5-chloropyrimidin-2-yl)piperidin-4-yl)propoxy)-2-fluorophenyl)acetyl)-1,6-diazaspiro[3.4]octan-1-yl)-5-oxopentane-1-sulfonic acid] |
| ≥ 130 | ≤ 100 | O=C(Cc1ccc(OCCCC2CCN(c3ncc(Cl)cn3)CC2)cc1F)N1C[C@@H]2CCN(C(=O)CCCCS(=O)(=O)O)[C@@H]2C1 [Example 6, 5-((3aS,6aS)-5-(2-(4-(3-(1-(5-chloropyrimidin-2-yl)piperidin-4-yl)propoxy)-2-fluorophenyl)acetyl)hexahydropyrrolo[3,4-b]pyrrol-1(2H)-yl)-5-oxopentane-1-sulfonic acid] |
| 100 to 130 | ≤ 100 | O=C(CCCCS(=O)(=O)O)N1C[C@H]2CN(C(=O)Cc3ccc(OCCCC4CCN(c5ncc(Cl)cn5)CC4)cc3F)[C@H]2C1 [Example 8, 5-((1S,5R)-6-(2-(4-(3-(1-(5-chloropyrimidin-2-yl)piperidin-4-yl)propoxy)-2-fluorophenyl)acetyl)-3,6-diazabicyclo[3.2.0]heptan-3-yl)-5-oxopentane-1-sulfonic acid] |
| 100 to 130 | ≤ 100 | O=C(CCCCS(=O)(=O)O)N1C[C@@H]2CN(C(=O)Cc3ccc(OCCCC4CCN(c5ncc(Cl)cn5)CC4)cc3F)C[C@@H]2C1 [Example 10, 5-((3aR,6aS)-5-(2-(4-(3-(1-(5-chloropyrimidin-2-yl)piperidin-4-yl)propoxy)-2-fluorophenyl)acetyl)hexahydropyrrolo[3,4-c]pyrrol-2(1H)-yl)-5-oxopentane-1-sulfonic acid] |
| 100 to 130 | ≤ 100 | O=C(CCCCS(=O)(=O)O)N1C[C@@H]2C[C@H]1CN2C(=O)Cc1ccc(OCCCC2CCN(c3ncc(Cl)cn3)CC2)cc1F [Example 15, 5-((1S,4S)-5-(2-(4-(3-(1-(5-chloropyrimidin-2-yl)piperidin-4-yl)propoxy)-2-fluorophenyl)acetyl)-2,5-diazabicyclo[2.2.1]heptan-2-yl)-5-oxopentane-1-sulfonic acid] |

Source: patent US20240217983A1, “GPR119 AGONISTS” (Kallyope, Inc., priority 2021, published 2024)
